Laboratory results from the NIST ThermoML archive (doi:10.1021/je200816z).
Numbers after ± are expanded uncertainties.

Conditions: 351.21 K; Liquid

In the case of `CCO` [ethanol], the “vapor or sublimation pressure” value is reported as 100 ± 0.9 kPa.
